This is an account of results in patent publication US12084471B2, “Amino acid derivative of glucosamine stimulating extracellular matrix synthesis and pharmaceutical composition comprising the same” (CARTILAGO S.R.L., priority 2018, dated 2024).

In assay [1] the test system is fibroblasts stimulated with UVB. The experiment in a line: fibroblasts stimulated with UVB. The assay is classed as cell-based. The text has this:
This discovery promptly aroused in the inventors an interest in the ability of this class of products to intervene in the remodeling of the cutaneous ECM, in which the relative alteration of turnover leads to atrophy of the skin, with consequent aging of the skin and in some cases even to onset of skin cancer processes.

A further assay has as its system c-jun. The assay is described as follows: activation of c-jun (AP-1 component) in primary cultured chondrocytes stimulated with IL-1. The assay is classed as cell-based. Here is the method:
(§1) To clarify the molecular mechanism, glucosamine-derived N-acetyl-phenylalanine has been studied in vitro, using primary cultured chondrocytes. The chondrocytes were stimulated with IL-1 in order to study the inflammatory pathway, controlled by the Activator Protein (AP)-1. […] The efficacy of interfering with the inflammatory pathway controlled by the transcription factor Nuclear Factor-κB (NF-κB) was then analyzed, which in turn is controlled by the IKK complex consisting of two IKKα and IKKβ kinases.

For assay [2], the system named is osteoarthritic knees of mice. The experiment in a line: in vivo model of OA in mice, intra-articular administration. Conditions: mice OA knee.
For assay [3], the system named is osteoarthritic knees of rabbits. The experiment in a line: in vivo model of OA in rabbit, intra-articular administration. The note with it: rabbit OA knee.
Assay [4] deals with T1, IKKα (Homo sapiens, UniProt O15111).
T1 sequence (O15111 1-745): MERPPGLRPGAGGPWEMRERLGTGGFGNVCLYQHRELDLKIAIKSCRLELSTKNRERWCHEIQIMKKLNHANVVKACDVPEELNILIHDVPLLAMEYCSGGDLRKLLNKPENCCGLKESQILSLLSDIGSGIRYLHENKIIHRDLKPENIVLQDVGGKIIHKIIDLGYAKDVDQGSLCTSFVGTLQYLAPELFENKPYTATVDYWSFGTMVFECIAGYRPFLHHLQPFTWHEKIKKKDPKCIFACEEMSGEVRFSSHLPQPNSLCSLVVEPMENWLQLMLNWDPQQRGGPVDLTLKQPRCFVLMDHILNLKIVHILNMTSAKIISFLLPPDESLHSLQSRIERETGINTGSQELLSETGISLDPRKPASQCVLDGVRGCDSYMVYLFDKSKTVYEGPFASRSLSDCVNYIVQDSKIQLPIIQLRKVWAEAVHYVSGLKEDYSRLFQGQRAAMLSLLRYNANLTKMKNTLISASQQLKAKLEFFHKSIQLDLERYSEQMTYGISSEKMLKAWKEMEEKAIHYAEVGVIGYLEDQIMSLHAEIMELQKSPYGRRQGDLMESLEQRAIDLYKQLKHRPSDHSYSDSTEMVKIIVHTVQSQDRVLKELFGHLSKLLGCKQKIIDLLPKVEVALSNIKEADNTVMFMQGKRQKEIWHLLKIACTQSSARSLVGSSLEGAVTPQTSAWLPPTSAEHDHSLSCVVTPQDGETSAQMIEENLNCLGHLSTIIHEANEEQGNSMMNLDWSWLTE
The assay is described as follows: kinase activity of IKKα. The assay is classed as cell-based. The procedure:
as §1

The subject of the next assay is HAS-2. The assay is described as follows: expression of hyaluronic acid synthetase (HAS-2) and production of hyaluronic acid. The assay is classed as cell-based.
In another assay the test system is JNK. The experiment in a line: JNK phosphorylation in primary cultured chondrocytes stimulated with IL-1. The assay is classed as cell-based. Here is the method:
as §1

Assay [5] has as its system human primary chondrocytes. The assay is described as follows: human primary chondrocytes cultured in three dimensions as spheroids, ECM synthesis. Type of assay: cell-based. The note with it: human chondrocyte spheroids, compound alone. The procedure:
Finally, in order to understand which intracellular pathways are activated by said N-acetyl-phenylalanine derived from glucosamine to stimulate ECM synthesis, further in vitro studies in human primary chondrocytes were conducted. In order to simulate physiological conditions, the culture of human chondrocytes was carried out in three dimensions, cultivating the cells in the form of spheroids.

The subject of a further assay is p38. The assay is described as follows: p38 phosphorylation in primary cultured chondrocytes stimulated with IL-1. The assay is classed as cell-based. Here is the method: as §1
A further assay concerns the target T2, IKKβ (Homo sapiens, UniProt O14920).
T2 sequence (O14920 1-756): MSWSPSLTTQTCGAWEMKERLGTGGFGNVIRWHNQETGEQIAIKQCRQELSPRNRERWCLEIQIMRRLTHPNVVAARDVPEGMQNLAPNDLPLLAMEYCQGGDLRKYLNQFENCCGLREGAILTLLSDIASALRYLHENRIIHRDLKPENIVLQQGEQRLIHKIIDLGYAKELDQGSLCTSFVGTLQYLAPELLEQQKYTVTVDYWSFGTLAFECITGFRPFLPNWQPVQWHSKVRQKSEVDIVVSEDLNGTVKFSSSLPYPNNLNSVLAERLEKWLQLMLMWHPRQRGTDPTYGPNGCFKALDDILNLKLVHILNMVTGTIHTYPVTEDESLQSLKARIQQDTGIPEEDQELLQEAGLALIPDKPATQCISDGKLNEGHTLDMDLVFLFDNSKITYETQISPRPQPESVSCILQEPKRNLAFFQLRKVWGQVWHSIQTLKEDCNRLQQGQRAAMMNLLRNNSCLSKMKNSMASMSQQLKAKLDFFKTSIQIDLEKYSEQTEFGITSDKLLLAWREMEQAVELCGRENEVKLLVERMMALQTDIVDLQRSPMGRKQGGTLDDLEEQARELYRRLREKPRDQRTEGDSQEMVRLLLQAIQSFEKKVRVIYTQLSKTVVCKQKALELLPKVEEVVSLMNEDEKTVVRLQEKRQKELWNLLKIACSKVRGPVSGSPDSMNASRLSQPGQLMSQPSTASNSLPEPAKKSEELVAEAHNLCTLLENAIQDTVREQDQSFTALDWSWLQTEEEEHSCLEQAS
The assay is described as follows: kinase activity of IKKβ. The assay is classed as cell-based. Here is the method: as §1

Assay [6] deals with T1, IKKα. The assay is described as follows: translocation of IKKα kinase in the nucleus, primary cultured chondrocytes. Type of assay: cell-based. Here is the method: as §1

Each structure is given as a SMILES string.

Consider `CC(=O)N[C@H](Cc1ccccc1)C(=O)NC1C(O)OC(CO)C(O)C1O` (stereo partly drawn) [N-acetyl-phenylalanine derivative of glucosamine], for which, in assay [1] (UVB-stimulated fibroblasts, synthesis blocked by UVB treatment), the “synthesis of type I collagen” value is on record as “restore the synthesis of type I collagen”. Also, the “inflammatory pathways stimulated by UVB” value in assay [1] (compound added to culture medium of UVB-stimulated fibroblasts) was “able to counteract the inflammatory pathways”. Further, in the assay on c-jun, the activation of c-jun entry is given as “influencing the activation of c-jun”. For the same compound, in assay [2], the cartilage structure result is listed as “structure very similar to the healthy one” and the “synthesis of new ECM” value is “stimulated the synthesis of new ECM”. In addition, in [3], the cartilage structure entry was “structure very similar to the healthy one” and the “synthesis of new ECM” value is “stimulated the synthesis of new ECM”. The “kinase activity of IKKα” value on IKKα [4] was “selectively inhibiting the kinase activity of IKKα”. For the same compound, in the assay on HAS-2, the “expression of the enzyme synthetase of hyaluronic acid (HAS-2)” value was “stimulate the expression” and the “production of hyaluronic acid (HA)” value is “stimulate”. In addition, the “phosphorylation of JNK” value with JNK is given as “inhibiting the phosphorylation”. Moreover, the “synthesis of type II collagen” value in [5] is listed as “stimulated the synthesis of type II collagen”. For the same compound, the “phosphorylation of p38” value in the assay on p38 is “inhibiting the phosphorylation”. Also, the “kinase activity of IKKβ” value at IKKβ is “not IKKβ”. Further, the “translocation in the nucleus of the IKKα kinase” value at IKKα [6] was “inhibited the translocation in the nucleus”.
